# According to PMC7369900 (International Journal of Molecular Sciences, 2020):
# Read-outs that look alike come from different tables or passages of the source.
# Legend:
# [1] = system: HL-60; assay: ROS generation (CM-H2DCFDA, flow cytometry); type: cell-based, human
# Description: (§1) In the positive controls treated with H2O2, the fraction of ROS-positive cells exceeded 75%. […] Strikingly, in HL-60, a biologically significant effect was observed almost immediately (after 15 min of incubation). The same was noted after 1 h in the HEK 293 cell line. […] Similarly, conjugates 4 and 5 generated ROS at the low level (less than 15% for HL-60 and less than 20% for HEK 293) (manuscript in preparation). […] For HL-60, the critical level of ROS was noted after 15 min of incubation.
# (§2) ROS generation activity was evaluated as described previously. Briefly, HEK 293 cells were seeded on 35-mm Petri dishes in the amount of 15,000 cells per plate for 24 h in DMEM medium. […] Positive controls contained 250 µM H2O2, while negative controls were without any additions. After 0.5, 2.5, 5.5, and 24 h of incubation at 37 °C, the CM-H2DCFDA molecular probe (Thermo Fischer Scientific, Waltham, USA) was added to the plates and incubation was continued for another 0.5 h. The HEK 293 cells were detached with 0.05% trypsin solution in PBS and HBSS (Hank’s Balanced Salt Solution) and suspended in fresh DMEM medium. All samples were additionally stained with 7-AAD (7-aminoactinomycin D, 0.8 µg/mL) and immediately analysed with a Guava easyCyte flow cytometer (Merc, Burlington, USA). The determinations were performed in triplicates.
# [2] = system: HEK 293; assay: ROS generation (CM-H2DCFDA, flow cytometry); type: cell-based, human
# Description: as §1, §2
# [3] = system: S. aureus ATCC 29,213; assay: Resistance induction by serial passage on MHA plates; type: cell-based, Staphylococcus aureus; settings: passaged with CIP 0.1875 μM or 3 0.375 μM
# [4] = system: S. epidermidis ATCC 12228; assay: microbe, parasite or virus in culture; type: cell-based, Staphylococcus epidermidis; settings: S. epidermidis ATCC 12228, MHB
# Description: (§3) The antibacterial activity of TP10-NH2-based conjugates, as well as its constituents, was evaluated by microdilution assay in Mueller Hinton broth, MHB (Table 1). […] There are, however, some exceptions. […] Its activity against two other tested bacteria was somewhat lower though.
# (§4) The antibacterial activity (bacteriostatic: MIC and bactericidal: MBC) of the tested compounds was determined in MHB (Mueller Hinton Broth, Sigma Aldrich, St. Louis, MO, USA) using a serial two-fold dilution method in 96-well microtiter plates according to CLSI recommendations, described in M07-A10 document. The exact conditions have been described previously. All experiments were performed in three replicates. The MIC90 and MIC50 values were defined as the concentrations of compounds tested that caused a 90% or 50% reduction of growth, respectively, comparing to the drug-free control.
# [5] = system: Hep G2; assay: cells; type: cell-based, human; settings: Hep G2, 72 h, MTT
# Description: (§5) Among the conjugates, LVXC-S-S-CTP10-NH2 (5) was the least cytotoxic. […] In the case of HEK 293 and LLC-PK1 cells, the IC50 values of 5 were nearly four times higher. […] Additionally, we noted that the cancer cells Hep G2 were less sensitive to the action of the given compounds than the non-cancer cells (HEK 293 and LLC-PK1).
# (§6) Cytotoxicity was assessed against three mammalian cell lines: LLC-PK1, Hep G2, and HEK 293. Multiwell (96–well) plates were seeded at 7000 cells/well in Medium 199 supplemented with 7.5% FBS, MEM Eagle’s medium supplemented with 10% FBS, or DMEM medium supplemented with 10% FBS, respectively. All media were supplemented with L-glutamine and antibiotics (penicillin/streptomycin). Cells were allowed to attach overnight. Drugs were dissolved in cell culture medium and added to wells in 100-µL aliquots of 2× concentrated solutions, in triplicates. To control wells, 100 µL of the medium were added. Cells were incubated with the studied compounds for 72 h at 37 °C and 95%/5% or 90%/10% (HEK 293 cells) CO2 atmosphere. Then, 20-µL aliquots of MTT solution in PBS (4 mg/mL) were added to all wells and plates were incubated further for 3 h in 37 °C. Formazan crystals formed were dissolved in 100 µL of DMSO and the absorbance of the solutions was measured using a multiwell plate reader (Spark, Tecan, Männedorf, Switzerland) at λ = 540 nm. Cytotoxicity was determined compared to the drug-free control. All experiments were performed in triplicates.
# [6] = system: HEK 293; assay: cells; type: cell-based, human; settings: HEK 293, 72 h, MTT
# Description: as §5, §6
# [7] = system: Gram-positive and Gram-negative bacteria; type: cell-based; settings: MHB, four bacteria
# Description: as §3, §4
# [8] = system: P. aeruginosa ATCC 27853; assay: microbe, parasite or virus in culture; type: cell-based, Pseudomonas aeruginosa; settings: for MIC50 / MIC90: P. aeruginosa ATCC 27853, MHB
# Description: as §3, §4
# [9] = system: E. coli ATCC 25,922; assay: Resistance induction by serial passage on MHA plates; type: cell-based, Escherichia coli; settings: passaged with CIP 0.012 μM or 3 0.012 μM
# [10] = system: S. aureus ATCC 29213; assay: microbe, parasite or virus in culture; type: cell-based, Staphylococcus aureus; settings: S. aureus ATCC 29213, MHB
# Description: as §3, §4
# [11] = system: E. coli ATCC 25922; assay: microbe, parasite or virus in culture; type: cell-based, Escherichia coli; settings: E. coli ATCC 25922, MHB
# Description: as §3, §4
# [12] = system: LLC-PK1; assay: cells; type: cell-based, pig; settings: LLC-PK1, 72 h, MTT
# Description: as §5, §6
# [13] = system: human red blood cells; assay: Hemolysis assay; settings: for MHC50 (concentration causing 50% hemolysis): 1 h, 37 °C
# [14] = target: T1, yeast DNA topoisomerase II (Saccharomyces cerevisiae, UniProt P06786); assay: biochemical; type: biochemical; settings: for Topoisomerase II inhibition at the highest used concentration: 500 µM
# T1 construct: purchased Inspiralis (Norwich, UK)
# [15] = system: yeasts of the Candida genus; assay: microbe, parasite or virus in culture; settings: read-out: MIC against Candida strains
# [16] = system: C. glabrata DSM 11226; assay: microbe, parasite or virus in culture; settings: Nakaseomyces glabratus, DSM11226
# [17] = system: C. krusei DSM 6128; assay: microbe, parasite or virus in culture; settings: Pichia kudriavzevii, DSM6128
# [18] = system: C. albicans SC 5314
# [19] = system: yeasts of the Candida genus
# [20] = system: C. albicans Gu4
# [21] = system: Staphylococcus aureus ATCC 25,923; design: method as in PMID 25891396; settings: cited from earlier work
# [22] = system: C. albicans Δopt1Δopt5Δptr2Δptr22
# [23] = system: bacteria; assay: Influence of salts: antibacterial activity in MHB2 compared to MHB; type: cell-based; settings: MHB2: Ca(II) 20–25 mg/L, Mg(II) 10–12.5 mg/L
# Description: Additionally, for selected compounds, the aspect of the influence of salts present in the medium on antimicrobial activity was evaluated. […] In the salt-enriched medium, the MIC values determined for TP10-NH2 were up to 40-fold higher than those found in MHB. The phenomenon of reduction of the growth inhibitory activity of antimicrobial peptides at a high salt concentration was previously evidenced by other researchers. It may cause severe limitations for AMPs’ usage as therapeutic agents because of the risk of potential inactivation by salts present in the human body.
# [24] = system: E. coli ATCC 25,922; design: method as in PMID 25891396; settings: cited from earlier work
# [25] = system: C. krusei DSM 6128
# [26] = system: C. glabrata DSM 11226
# [27] = system: S. aureus ATCC 25,923 cells; assay: Stability inside bacterial cells (LC-MS of cell lysate)
# [28] = Staphylococcus epidermidis, ATCC12228
# [29] = Pseudomonas aeruginosa, ATCC27853
# [30] = Staphylococcus aureus, ATCC29213
# T1 sequence (P06786 whole entry): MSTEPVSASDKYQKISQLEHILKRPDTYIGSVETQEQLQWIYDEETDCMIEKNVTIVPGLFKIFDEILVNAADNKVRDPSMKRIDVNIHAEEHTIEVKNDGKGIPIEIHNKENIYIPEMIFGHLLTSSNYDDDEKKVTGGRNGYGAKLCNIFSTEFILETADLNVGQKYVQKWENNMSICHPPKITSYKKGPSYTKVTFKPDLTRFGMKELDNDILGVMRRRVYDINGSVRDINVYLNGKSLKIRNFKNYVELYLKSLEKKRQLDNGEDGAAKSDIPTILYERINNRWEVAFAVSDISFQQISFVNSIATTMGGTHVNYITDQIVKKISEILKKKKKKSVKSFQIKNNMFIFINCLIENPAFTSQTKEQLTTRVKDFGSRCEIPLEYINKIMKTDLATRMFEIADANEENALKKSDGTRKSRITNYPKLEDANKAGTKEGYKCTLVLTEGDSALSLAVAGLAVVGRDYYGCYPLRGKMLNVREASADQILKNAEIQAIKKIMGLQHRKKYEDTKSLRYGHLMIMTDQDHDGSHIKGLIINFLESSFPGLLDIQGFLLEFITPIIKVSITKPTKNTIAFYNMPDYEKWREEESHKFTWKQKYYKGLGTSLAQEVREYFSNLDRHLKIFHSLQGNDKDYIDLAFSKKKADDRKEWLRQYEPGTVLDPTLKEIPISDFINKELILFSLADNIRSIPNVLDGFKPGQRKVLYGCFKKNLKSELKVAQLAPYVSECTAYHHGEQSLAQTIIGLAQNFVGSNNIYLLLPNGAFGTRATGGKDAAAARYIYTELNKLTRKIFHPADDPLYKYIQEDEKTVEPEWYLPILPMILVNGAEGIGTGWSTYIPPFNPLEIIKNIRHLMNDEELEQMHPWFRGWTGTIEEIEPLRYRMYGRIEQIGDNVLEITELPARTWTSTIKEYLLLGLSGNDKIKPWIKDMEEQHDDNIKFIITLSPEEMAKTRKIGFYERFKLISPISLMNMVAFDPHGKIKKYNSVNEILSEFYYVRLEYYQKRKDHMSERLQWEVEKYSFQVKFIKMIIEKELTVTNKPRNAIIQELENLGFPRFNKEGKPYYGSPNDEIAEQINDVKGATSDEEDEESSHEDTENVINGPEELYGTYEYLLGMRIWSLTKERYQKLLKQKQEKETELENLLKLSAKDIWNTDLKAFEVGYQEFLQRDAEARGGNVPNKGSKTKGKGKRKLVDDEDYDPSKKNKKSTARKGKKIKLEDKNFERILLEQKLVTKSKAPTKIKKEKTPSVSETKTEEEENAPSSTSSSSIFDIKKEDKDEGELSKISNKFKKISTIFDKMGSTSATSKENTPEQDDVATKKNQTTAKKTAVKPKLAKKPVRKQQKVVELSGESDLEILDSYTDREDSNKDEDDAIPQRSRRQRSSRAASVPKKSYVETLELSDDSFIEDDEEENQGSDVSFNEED
smiles,measurement,setting,value
"O=C(O)c1cn(C2CC2)c2cc(N3CCNCC3)c(F)cc2c1=O [CIP, ciprofloxacin]",Incubation time at which significant/critical ROS level was noted,"[1]; human, 100 µM",15 min
same,Dot plot quadrant LB,"[1]; human, 3 h, 100 µM",96.2 ± 2.6
same,Dot plot quadrant LT,"[1]; human, 3 h, 100 µM",1.1 ± 1.5
same,Dot plot quadrant RB,"[1]; human, 3 h, 100 µM",2.6 ± 1.6
same,Dot plot quadrant RT,"[1]; human, 3 h, 100 µM",0.7 ± 0.7
same,Dot plot quadrant LB,"[1]; human, 6 h, 100 µM",97.5 ± 1.2
same,Dot plot quadrant LT,"[1]; human, 6 h, 100 µM",0.4 ± 0.3
same,Dot plot quadrant RB,"[1]; human, 6 h, 100 µM",2.1 ± 1.3
same,Dot plot quadrant RT,"[1]; human, 6 h, 100 µM",0.0 ± 0.0
same,Dot plot quadrant LB,"[1]; human, 24 h, 100 µM",99.7 ± 0.2
same,Dot plot quadrant LT,"[1]; human, 24 h, 100 µM",0.1 ± 0.1
same,Dot plot quadrant RB,"[1]; human, 24 h, 100 µM",0.2 ± 0.1
same,Dot plot quadrant RT,"[1]; human, 24 h, 100 µM",0.0 ± 0.0
same,Incubation time at which significant ROS effect was noted,"[2]; human, 500 µM",1 h
same,Increase of MIC compared to the control after passaging,[3],2 fold
same,MIC50,[4]; [28],0.8 µM
same,MIC90,[4]; [28],1.6 µM
same,IC50,"[5]; Homo sapiens, HepG2",> 200 µM
same,IC50,"[6]; Homo sapiens, HEK293",> 200 µM
same,MIC50 range over tested bacteria,[7],0.0125 to 0.8 µM
same,"MIC90, upper end of range over tested bacteria",[7],≤ 1.6 µM
same,MIC50,[8]; [29],0.4 µM
same,MIC90,[8]; [29],0.4 µM
same,Increase of MIC after the 5th passage,[9],8 fold
same,Increase of MIC after the 10th passage,[9],8 fold
same,MIC50,[10]; [30],0.2 µM
same,MIC90,[10]; [30],0.2 µM
same,MIC50,"[11]; Escherichia coli, ATCC25922",< 0.0125 µM
same,MIC90,"[11]; Escherichia coli, ATCC25922",0.0125 µM
same,IC50,[12]; Sus scrofa,> 200 µM
same,Hemolytic effect,[13],do not cause a hemolytic effect
same,Topoisomerase II inhibition at the highest used concentration,[14],residual activity
"C[C@H]1COc2c(N3CCN(C)CC3)c(F)cc3c(=O)c(C(=O)O)cn1c23 [LVX, levofloxacin, reference compound]",MIC,[15],> 200 µM
same,MIC50,[16],> 200 µM
same,MIC50,[4]; [28],0.8 µM
same,MIC90,[4]; [28],1.6 µM
same,IC50,"[5]; Homo sapiens, HepG2",> 200 µM
same,IC50,"[6]; Homo sapiens, HEK293",> 200 µM
same,MIC50 range over tested bacteria,[7],0.0125 to 0.8 µM
same,"MIC90, upper end of range over tested bacteria",[7],≤ 1.6 µM
same,MIC50,[8]; [29],0.8 µM
same,MIC90,[8]; [29],0.8 µM
same,MIC50,[10]; [30],0.4 µM
same,MIC90,[10]; [30],0.4 µM
same,MIC50,"[11]; Escherichia coli, ATCC25922",0.025 µM
same,MIC90,"[11]; Escherichia coli, ATCC25922",0.025 µM
same,IC50,[12]; Sus scrofa,> 200 µM
same,Hemolytic effect,[13],do not cause a hemolytic effect
same,MIC50,[17],> 200 µM
same,Topoisomerase II inhibition at the highest used concentration,[14],residual activity
"CC[C@H](C)[C@H](NC(=O)[C@H](CCCCN)NC(=O)[C@H](CCCCN)NC(=O)[C@H](C)NC(=O)[C@H](CC(C)C)NC(=O)[C@H](C)NC(=O)[C@H](C)NC(=O)[C@H](CC(C)C)NC(=O)[C@H](C)NC(=O)[C@H](CCCCN)NC(=O)[C@H](CC(C)C)NC(=O)[C@H](CC(N)=O)NC(=O)[C@@H](NC(=O)[C@H](CCCCN)NC(=O)CNC(=O)[C@H](CC(C)C)NC(=O)[C@H](CC(C)C)NC(=O)[C@H](Cc1ccc(O)cc1)NC(=O)CNC(=O)[C@H](C)N)[C@@H](C)CC)C(=O)N[C@@H](CC(C)C)C(N)=O [TP10-NH2, transportan 10, reference compound]",ROS HL-60,"[1]; positive cells in 24 h, class",++ (++ <10% positive cells in 24 h)
same,ROS HEK 293,"[2]; positive cells in 24 h, class",++ (++ <10% positive cells in 24 h)
same,MIC50,[18],100 µM
same,MIC90,[18],100 µM
same,MIC50,[4],1.6 µM
same,MIC90,[4],1.6 µM
same,IC50,[5],32.1 ± 1.65 µM
same,IC50,[6],25.1 ± 0.86 µM
same,MIC against C. albicans,[19],100 µM
same,MIC50,[20],100 µM
same,MIC,"[21]; Staphylococcus aureus ATCC 25,923, converted from μg/mL",~ 7 μM
same,MIC,"[21]; Staphylococcus aureus ATCC 25,923",16 µg/mL
same,MIC50,[22],100 µM
same,MIC90,[22],100 µM
same,MIC50,[8],>100 µM
same,MIC90,[8],>100 µM
same,MIC,"[8]; Pseudomonas aeruginosa, MHB",> 100 µM
same,Influence of salts (MHB2 vs MHB) on antibacterial activity,[23],strongly affected
same,MIC in salt-enriched medium (MHB2) relative to MHB,[23],up to 40 fold
same,MIC,"[24]; E. coli ATCC 25,922, converted from μg/mL",~ 7 μM
same,MIC,"[24]; E. coli ATCC 25,922",16 µg/mL
same,MIC50,[25],>200 µM
same,MIC50,[10],3.125 µM
same,MIC90,[10],3.125 µM
same,MIC50,[26],>200 µM
same,MIC50,[11],1.6 µM
same,MIC90,[11],1.6 µM
same,IC50,[12],22.7 ± 5.65 µM
same,MHC50 (concentration causing 50% hemolysis),[13],~200 µg/mL
same,MHC50 (concentration causing 50% hemolysis),[13]; converted from μg/mL,~ 92 μM
same,Stability inside bacterial cells,[27],resistant inside the bacterial cells
same,Concentration of complete inhibition of topoisomerase II activity,"[14]; pBR322 relaxation, 30 °C, 30 min",50 µM
